Among the data in BindingDB's records for doi:10.1021/bi900236k (University of Thessaly, 2009) are Ki values, retold here.

SMILES strings stand for the structures.

The target of the experiment is T1, Poly(A)-specific ribonuclease PARN (Homo sapiens, UniProt O95453).
T1 sequence (O95453 whole entry): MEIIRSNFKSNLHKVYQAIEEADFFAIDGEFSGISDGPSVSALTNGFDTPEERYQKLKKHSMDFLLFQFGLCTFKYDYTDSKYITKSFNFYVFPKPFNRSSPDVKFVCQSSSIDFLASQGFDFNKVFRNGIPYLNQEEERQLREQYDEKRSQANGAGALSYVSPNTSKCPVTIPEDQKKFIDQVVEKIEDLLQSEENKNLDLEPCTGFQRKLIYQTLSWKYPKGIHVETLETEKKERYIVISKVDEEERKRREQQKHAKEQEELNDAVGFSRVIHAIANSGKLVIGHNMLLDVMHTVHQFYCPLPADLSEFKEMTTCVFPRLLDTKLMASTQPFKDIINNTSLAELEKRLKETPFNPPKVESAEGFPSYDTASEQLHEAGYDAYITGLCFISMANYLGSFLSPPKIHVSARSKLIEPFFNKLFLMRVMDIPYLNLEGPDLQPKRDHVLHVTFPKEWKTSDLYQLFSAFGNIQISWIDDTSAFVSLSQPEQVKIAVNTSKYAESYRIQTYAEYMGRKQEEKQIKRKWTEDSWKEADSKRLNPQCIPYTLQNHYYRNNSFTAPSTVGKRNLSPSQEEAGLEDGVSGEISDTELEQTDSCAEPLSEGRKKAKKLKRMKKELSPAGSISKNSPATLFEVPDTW
Nature of the experiment: PARN Activity Assay. How it is done: The enzymatic activity was determined by the methylene blue assay.

Regarding `O=C(Nc1ncnc2c1ncn2C1OC(O)C(O)C(F)C1O)c1ccccc1` (stereo not drawn) [Nucleoside, A2], affinity was put at a Ki of 510 µM.

In the case of `O=C(Nc1ccn(C2OC(CO)C(O)C(F)C2O)c(=O)n1)c1ccccc1` (stereo not drawn) [Nucleoside, A6], the Ki – broadly, the dissociation constant of the complex between target and ligand, obtained from inhibition or displacement – worked out at 210 µM.

`Nc1ccn(C2OC(CO)C(O)C(F)C2O)c(=O)n1` (stereo not drawn) [Nucleoside, C6]: the Ki was 645 µM.
